Legend:
Assay in all cases: relative viability (nuclei count vs DMSO), 5 days (fraction); higher = more cells survive
[1] = system: NCI-H596
Procedure, shortened: (§1)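 Five library-drug doses in √10 steps were combined with a fixed anchor-drug dose, or a single drug was given alone, by pin tool to lung cancer cell lines in 1536-well plates the day after seeding. Nuclei were stained and counted after 5 days. Relative viability is the nuclei count in treated wells over that in vehicle wells, taken as the median of duplicate plates.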

[2] = system: NCI-H1755
Procedure, shortened: as §1

[3] = system: LK-2
Procedure, shortened: as §1

[4] = system: NCI-H520
Procedure, shortened: as §1

[5] = system: EMC-BAC-2
Procedure, shortened: as §1

[6] = system: A-427
Procedure, shortened: as §1

[7] = system: NCI-H23
Procedure, shortened: as §1

[8] = system: PC-3 [JPC-3]
Procedure, shortened: as §1

[9] = system: SK-MES-1
Procedure, shortened: as §1

[10] = system: EKVX
Procedure, shortened: as §1

[11] = system: H3255
Procedure, shortened: as §1

[12] = system: NCI-H1975
Procedure, shortened: as §1

[13] = system: LOU-NH91
Procedure, shortened: as §1

[14] = system: NCI-H1734
Procedure, shortened: as §1

[15] = system: NCI-H2170
Procedure, shortened: as §1

[16] = system: NCI-H1666
Procedure, shortened: as §1

[17] = system: HCC-366
Procedure, shortened: as §1

[18] = system: COR-L 105
Procedure, shortened: as §1

[19] = system: NCI-H1563
Procedure, shortened: as §1

**Q.** For `O=c1cc(N2CCOCC2)oc2c(-c3cccc4c3sc3ccccc34)cccc12` + CS(=O)(=O)CCNCc1ccc(-c2ccc3ncnc(Nc4ccc(OCc5cccc(F)c5)c(Cl)c4)c3c2)o1 [Lapatinib] (partner 2 µM), which relative viability ([1]; first compound 0.01 µM) is on record?
**A.** The relative viability was 1.11.

**Q.** What about the relative viability ([1]; first compound 0.03162 µM) of the same molecule?
**A.** Its relative viability is 1.16.

**Q.** What about the relative viability ([1]; first compound 0.1 µM) of the same molecule?
**A.** The relative viability was 1.06.

**Q.** And the relative viability ([1]; first compound 0.3162 µM)?
**A.** Its relative viability is 1.16.

**Q.** And the relative viability ([1]; first compound 1 µM)?
**A.** The relative viability was 1.16.

**Q.** And the relative viability ([2]; first compound 0.01 µM)?
**A.** Its relative viability is 0.81.

**Q.** What about the relative viability ([2]; first compound 0.03162 µM) of the same molecule?
**A.** The relative viability was 1.02.

**Q.** What about the relative viability ([2]; first compound 0.1 µM) of the same molecule?
**A.** Its relative viability is 1.02.

**Q.** What about the relative viability ([2]; first compound 0.3162 µM) of the same molecule?
**A.** The relative viability was 1.04.

**Q.** And the relative viability ([2]; first compound 1 µM)?
**A.** The relative viability was 1.07.

**Q.** And the relative viability ([3]; first compound 0.01 µM)?
**A.** The relative viability was 0.832.

**Q.** And the relative viability ([3]; first compound 0.03162 µM)?
**A.** Its relative viability is 0.986.

**Q.** And the relative viability ([3]; first compound 0.1 µM)?
**A.** The relative viability was 1.12.

**Q.** What about the relative viability ([3]; first compound 0.3162 µM) of the same molecule?
**A.** The relative viability was 0.909.

**Q.** What about the relative viability ([3]; first compound 1 µM) of the same molecule?
**A.** Its relative viability is 1.07.

**Q.** And the relative viability ([4]; first compound 0.01 µM)?
**A.** The relative viability was 0.781.

**Q.** And the relative viability ([4]; first compound 0.03162 µM)?
**A.** The relative viability was 0.825.

**Q.** And the relative viability ([4]; first compound 0.1 µM)?
**A.** Its relative viability is 0.767.

**Q.** What about the relative viability ([4]; first compound 0.3162 µM) of the same molecule?
**A.** Its relative viability is 0.816.

**Q.** What about the relative viability ([4]; first compound 1 µM) of the same molecule?
**A.** Its relative viability is 0.906.

**Q.** What about the relative viability ([5]; first compound 0.01 µM) of the same molecule?
**A.** Its relative viability is 0.732.

**Q.** And the relative viability ([5]; first compound 0.03162 µM)?
**A.** The relative viability was 0.946.

**Q.** What about the relative viability ([5]; first compound 0.1 µM) of the same molecule?
**A.** The relative viability was 0.97.

**Q.** What about the relative viability ([5]; first compound 0.3162 µM) of the same molecule?
**A.** The relative viability was 0.893.

**Q.** What about the relative viability ([5]; first compound 1 µM) of the same molecule?
**A.** The relative viability was 0.848.

**Q.** What about the relative viability ([6]; first compound 0.01 µM) of the same molecule?
**A.** Its relative viability is 1.12.

**Q.** What about the relative viability ([6]; first compound 0.03162 µM) of the same molecule?
**A.** Its relative viability is 1.01.

**Q.** What about the relative viability ([6]; first compound 0.1 µM) of the same molecule?
**A.** The relative viability was 0.982.

**Q.** And the relative viability ([6]; first compound 0.3162 µM)?
**A.** The relative viability was 1.01.

**Q.** And the relative viability ([6]; first compound 1 µM)?
**A.** Its relative viability is 1.05.

**Q.** What about the relative viability ([7]; first compound 0.01 µM) of the same molecule?
**A.** The relative viability was 0.992.

**Q.** And the relative viability ([7]; first compound 0.03162 µM)?
**A.** The relative viability was 1.09.

**Q.** And the relative viability ([7]; first compound 0.3162 µM)?
**A.** The relative viability was 1.1.

**Q.** And the relative viability ([7]; first compound 1 µM)?
**A.** The relative viability was 1.22.

**Q.** What about the relative viability ([8]; first compound 0.01 µM) of the same molecule?
**A.** Its relative viability is 0.492.

**Q.** What about the relative viability ([8]; first compound 0.03162 µM) of the same molecule?
**A.** The relative viability was 0.435.

**Q.** What about the relative viability ([8]; first compound 0.1 µM) of the same molecule?
**A.** Its relative viability is 0.462.

**Q.** What about the relative viability ([8]; first compound 0.3162 µM) of the same molecule?
**A.** The relative viability was 0.421.

**Q.** What about the relative viability ([8]; first compound 1 µM) of the same molecule?
**A.** The relative viability was 0.423.

**Q.** What about the relative viability ([9]; first compound 0.01 µM) of the same molecule?
**A.** The relative viability was 0.51.

**Q.** What about the relative viability ([9]; first compound 0.03162 µM) of the same molecule?
**A.** Its relative viability is 0.53.

**Q.** What about the relative viability ([9]; first compound 0.1 µM) of the same molecule?
**A.** The relative viability was 0.487.

**Q.** And the relative viability ([9]; first compound 0.3162 µM)?
**A.** Its relative viability is 0.453.

**Q.** And the relative viability ([9]; first compound 1 µM)?
**A.** Its relative viability is 0.407.

**Q.** What about the relative viability ([10]; first compound 0.01 µM) of the same molecule?
**A.** The relative viability was 0.218.

**Q.** What about the relative viability ([10]; first compound 0.03162 µM) of the same molecule?
**A.** The relative viability was 0.216.

**Q.** What about the relative viability ([10]; first compound 0.1 µM) of the same molecule?
**A.** Its relative viability is 0.196.

**Q.** And the relative viability ([10]; first compound 0.3162 µM)?
**A.** Its relative viability is 0.202.

**Q.** What about the relative viability ([10]; first compound 1 µM) of the same molecule?
**A.** The relative viability was 0.219.

**Q.** And the relative viability ([11]; first compound 0.01 µM)?
**A.** Its relative viability is 0.222.

**Q.** What about the relative viability ([11]; first compound 0.03162 µM) of the same molecule?
**A.** The relative viability was 0.286.

**Q.** What about the relative viability ([11]; first compound 0.1 µM) of the same molecule?
**A.** The relative viability was 0.258.

**Q.** What about the relative viability ([11]; first compound 0.3162 µM) of the same molecule?
**A.** Its relative viability is 0.225.

**Q.** And the relative viability ([11]; first compound 1 µM)?
**A.** The relative viability was 0.248.

**Q.** What about the relative viability ([12]; first compound 0.01 µM) of the same molecule?
**A.** Its relative viability is 0.856.

**Q.** And the relative viability ([12]; first compound 0.03162 µM)?
**A.** The relative viability was 0.84.

**Q.** And the relative viability ([12]; first compound 0.1 µM)?
**A.** The relative viability was 0.848.

**Q.** And the relative viability ([12]; first compound 0.3162 µM)?
**A.** Its relative viability is 0.849.

**Q.** What about the relative viability ([12]; first compound 1 µM) of the same molecule?
**A.** The relative viability was 0.826.

**Q.** What about the relative viability ([13]; first compound 0.01 µM) of the same molecule?
**A.** The relative viability was 0.775.

**Q.** And the relative viability ([13]; first compound 0.03162 µM)?
**A.** Its relative viability is 0.774.

**Q.** And the relative viability ([13]; first compound 0.1 µM)?
**A.** The relative viability was 0.755.

**Q.** What about the relative viability ([13]; first compound 0.3162 µM) of the same molecule?
**A.** Its relative viability is 0.744.

**Q.** And the relative viability ([13]; first compound 1 µM)?
**A.** Its relative viability is 0.764.

**Q.** And the relative viability ([14]; first compound 0.01 µM)?
**A.** The relative viability was 1.12.

**Q.** What about the relative viability ([14]; first compound 0.03162 µM) of the same molecule?
**A.** Its relative viability is 1.03.

**Q.** And the relative viability ([14]; first compound 0.1 µM)?
**A.** Its relative viability is 1.12.

**Q.** What about the relative viability ([14]; first compound 0.3162 µM) of the same molecule?
**A.** The relative viability was 1.04.

**Q.** What about the relative viability ([14]; first compound 1 µM) of the same molecule?
**A.** Its relative viability is 0.927.

**Q.** And the relative viability ([15]; first compound 0.01 µM)?
**A.** Its relative viability is 0.241.

**Q.** And the relative viability ([15]; first compound 0.03162 µM)?
**A.** The relative viability was 0.25.

**Q.** And the relative viability ([15]; first compound 0.1 µM)?
**A.** The relative viability was 0.253.

**Q.** What about the relative viability ([15]; first compound 0.3162 µM) of the same molecule?
**A.** Its relative viability is 0.285.

**Q.** What about the relative viability ([15]; first compound 1 µM) of the same molecule?
**A.** The relative viability was 0.274.

**Q.** What about the relative viability ([16]; first compound 0.01 µM) of the same molecule?
**A.** The relative viability was 0.555.

**Q.** What about the relative viability ([16]; first compound 0.03162 µM) of the same molecule?
**A.** Its relative viability is 0.735.

**Q.** What about the relative viability ([16]; first compound 0.1 µM) of the same molecule?
**A.** The relative viability was 0.715.

**Q.** What about the relative viability ([16]; first compound 0.3162 µM) of the same molecule?
**A.** The relative viability was 0.614.

**Q.** And the relative viability ([16]; first compound 1 µM)?
**A.** The relative viability was 0.591.

**Q.** What about the relative viability ([17]; first compound 0.01 µM) of the same molecule?
**A.** Its relative viability is 0.968.

**Q.** What about the relative viability ([17]; first compound 0.03162 µM) of the same molecule?
**A.** The relative viability was 1.06.

**Q.** What about the relative viability ([17]; first compound 0.1 µM) of the same molecule?
**A.** The relative viability was 1.04.

**Q.** And the relative viability ([17]; first compound 0.3162 µM)?
**A.** The relative viability was 1.04.

**Q.** And the relative viability ([17]; first compound 1 µM)?
**A.** Its relative viability is 1.04.

**Q.** What about the relative viability ([18]; first compound 0.01 µM) of the same molecule?
**A.** The relative viability was 0.384.

**Q.** And the relative viability ([18]; first compound 0.03162 µM)?
**A.** Its relative viability is 0.327.

**Q.** And the relative viability ([18]; first compound 0.1 µM)?
**A.** The relative viability was 0.397.

**Q.** What about the relative viability ([18]; first compound 0.3162 µM) of the same molecule?
**A.** The relative viability was 0.379.

**Q.** What about the relative viability ([18]; first compound 1 µM) of the same molecule?
**A.** Its relative viability is 0.412.

**Q.** What about the relative viability ([19]; first compound 0.01 µM) of the same molecule?
**A.** Its relative viability is 1.27.

**Q.** And the relative viability ([19]; first compound 0.03162 µM)?
**A.** The relative viability was 0.995.

**Q.** And the relative viability ([19]; first compound 0.1 µM)?
**A.** The relative viability was 1.04.

**Q.** And the relative viability ([19]; first compound 0.3162 µM)?
**A.** Its relative viability is 0.762.

**Q.** And the relative viability ([19]; first compound 1 µM)?
**A.** The relative viability was 0.782.
